Source: patent US20070269830A1, “Process for the Identification of New Medical Targets” (priority 2003, published 2007)

Key:
[1] = molecular target: T1, E. coli expressed His-tagged human carbonyl reductase (CBR1) (Homo sapiens, UniProt P16152); assay: carbonyl reductase activity assay (NADPH oxidation with menadione), recombinant enzyme; type: biochemical; settings: rate without benserazide 24.0
T1 construct: His; made in house; host or cells: E. coli
T1 sequence (P16152 1-277): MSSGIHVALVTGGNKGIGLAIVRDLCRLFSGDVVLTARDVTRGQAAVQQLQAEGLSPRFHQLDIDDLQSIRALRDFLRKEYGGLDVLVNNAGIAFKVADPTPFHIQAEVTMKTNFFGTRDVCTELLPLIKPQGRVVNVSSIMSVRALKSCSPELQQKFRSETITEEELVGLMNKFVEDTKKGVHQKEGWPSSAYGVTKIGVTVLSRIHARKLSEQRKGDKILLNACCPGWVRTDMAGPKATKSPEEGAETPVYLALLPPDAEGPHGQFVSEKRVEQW
Protocol: (§1) The carbonyl reductase activity was evaluated spectrophotometrically according to the methods of Iwata et al. 1990. Eur. J. Biochem 193, p. 75-81.: Inazu N, Ruepp B., Wirth H., Wermuth B. 1992. BBA, 1116, p. 50-56 and Imamura et al. 1993. Arch. Biochem. Biophys. 300, p. 570-576. The oxidation rate of NADPH was recorded in the presence of the specific substrate menadione at 340 nm at room temperature on a Jenway 6505 UV/VIS Spectrophotometer.
(§2) The standard assay mixture consisted of 100 mM sodium phosphate buffer pH 7.0, 0.12 mM NADPH, 0.25 mM menadione. The reaction was started by adding 5-20 μg of E. coli expressed His-tagged human carbonyl reductase (CBR1) or alternatively by adding 10 μl of mouse live lysate extract (total protein concentration of 15 mg/ml). The total volume of the reaction mixture was 1 ml. The change of the absorbance was monitored at 340 nm.
(§3) The inhibition of carbonyl reductase was determined using the assay described in example 1. In addition to menadione as a substrate, the assay mixture was supplemented with 0, 0.5, 1, 2, 3, 6, or 7.5 mM benserazide. The inhibition experiment performed with mouse liver lysate as well as with recombinant CBR1 in protein supplemented probes.

[2] = molecular target: T2, Carbonyl Reductase (CBR1) (Mus musculus, UniProt P48758); assay: drug pulldown assay with immobilized benserazide, mouse liver cell lysate; type: binding; settings: benserazide on NHS-activated beads, mass spectrometry identification
T2 construct: from tissue; host or cells: mouse liver
T2 sequence (P48758 1-277): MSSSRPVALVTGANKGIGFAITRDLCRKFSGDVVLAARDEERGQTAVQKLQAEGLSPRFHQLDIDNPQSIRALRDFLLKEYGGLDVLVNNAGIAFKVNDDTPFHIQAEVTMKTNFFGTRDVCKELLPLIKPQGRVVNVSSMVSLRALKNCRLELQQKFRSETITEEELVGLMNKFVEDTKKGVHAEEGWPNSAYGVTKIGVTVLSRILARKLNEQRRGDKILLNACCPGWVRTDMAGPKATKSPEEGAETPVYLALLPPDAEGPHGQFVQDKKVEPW
Protocol: The compound benserazide was immobilized on NHS-activated beads (Affi Gel 10, BioRad) via its NH2-group. 300 μl of the beads (both with the immobilized. benserazide and control beads) were washed in 10 ml washing buffer A (50 mM Tris, pH 7.5; 0.1 M NaCl, 0.15% lgepal, 1.5 mM MgCl2, 0.1 mM DTT) for 5-10 min at 4° C. and centrifugation for 5 min at 1000 rpm in a Heraeus Varifuge 3 OR).
Mouse liver cell lysate (60-100 mg total protein) and 125 μl 50× protease inhibitor tablets (Roche, Complete, EDTA free) where added to the beads and the suspension was incubated for 1 h at 4° C. (while rotating). The suspension was washed 1-3 × with 10 ml washing buffer B (50 mM Tris, pH 7.5; 0.1 M NaCl, 0.15% lgepal, 1.5 mM MgCl2, 0.1 mM DTT, 1× Protease inhibitor tablet (Complete, EDTA free, Roche)) by rotating the suspension for 5-10 min at 4° C. and centrifugation at 10,000 rpm at 4° C. The beads were transferred to a 1 ml MoBiTec column and connected to a 10 ml syringe. 10 ml washing buffer B were added.
Elution was performed by adding a 5-10 fold excess of the drug relative to the beads capacity. The drug was dissolved in 500 μl washing buffer B and incubated with beads on a rotating platform for 1 h at 4° C. and subsequently eluted in an eppendorf tube. 300 μl of washing buffer B were added to the beads and eluted immediately in the same eppendorf tube. […]

[3] = test system: carbonyl reductase activity in mouse liver lysate; assay: carbonyl reductase activity assay (NADPH oxidation with menadione), mouse liver lysate; type: biochemical; settings: rate without benserazide 16.3
Protocol: as §1, §2, §3

SMILES: NC(CO)C(=O)NNCc1ccc(O)c(O)c1O (centres unmarked) [benserazide]
- initial rate, carbonyl reductase ([1]; 2 mM benserazide, 0.25 mM menadione, 0.12 mM NADPH): 13.7 nmol/min
- initial rate, carbonyl reductase ([1]; 6 mM benserazide): 3.5 nmol/min
- initial rate, carbonyl reductase ([1]; 7.5 mM benserazide): 0.3 nmol/min
- binding of carbonyl reductase (CBR1) to immobilized drug [2]: Identified as a Binding Partner
- initial rate, mouse liver lysate ([3]; 0.5 mM benserazide): 12.1 nmol/min
- initial rate, mouse liver lysate ([3]; 1 mM benserazide): 8.6 nmol/min
- initial rate, mouse liver lysate ([3]; 2 mM benserazide): 1.2 nmol/min
- initial rate, mouse liver lysate ([3]; 3 mM benserazide): 1.3 nmol/min
